Data: US20090233940A1, “Insecticide Compositions” (priority 2008, published 2009)

Key:
Cycad Asian Scale = experiment: Killing of scale insects / exterminating Cycad Asian Scale populations (general statements); conditions: in vivo
[1] = can be used outdoors as well as indoors; cited from earlier work

SMILES	usefulness in exterminating Cycad Asian Scale populations (Cycad Asian Scale)	photostability [1]
CCOC(=O)CC(SP(=S)(OC)OC)C(=O)OCC (centres unmarked) [Malathion, malathion]	particularly useful	
CC(COc1ccc(Oc2ccccc2)cc1)Oc1ccccn1 (centres unmarked) [Nylar]		photostable
